Reference: patent publication US9127040B2, “Regulation of sodium channels by PLUNC proteins” (The University of North Carolina at Chapel Hill, priority 2011, dated 2015)

T1: αβγENaC (Rattus norvegicus, UniProt P37089+P37090+P37091)
T1 construct: expressed in transfected cells; host or cells: Xenopus laevis oocytes (cRNA injection)
T1 sequence (P37089 1-698): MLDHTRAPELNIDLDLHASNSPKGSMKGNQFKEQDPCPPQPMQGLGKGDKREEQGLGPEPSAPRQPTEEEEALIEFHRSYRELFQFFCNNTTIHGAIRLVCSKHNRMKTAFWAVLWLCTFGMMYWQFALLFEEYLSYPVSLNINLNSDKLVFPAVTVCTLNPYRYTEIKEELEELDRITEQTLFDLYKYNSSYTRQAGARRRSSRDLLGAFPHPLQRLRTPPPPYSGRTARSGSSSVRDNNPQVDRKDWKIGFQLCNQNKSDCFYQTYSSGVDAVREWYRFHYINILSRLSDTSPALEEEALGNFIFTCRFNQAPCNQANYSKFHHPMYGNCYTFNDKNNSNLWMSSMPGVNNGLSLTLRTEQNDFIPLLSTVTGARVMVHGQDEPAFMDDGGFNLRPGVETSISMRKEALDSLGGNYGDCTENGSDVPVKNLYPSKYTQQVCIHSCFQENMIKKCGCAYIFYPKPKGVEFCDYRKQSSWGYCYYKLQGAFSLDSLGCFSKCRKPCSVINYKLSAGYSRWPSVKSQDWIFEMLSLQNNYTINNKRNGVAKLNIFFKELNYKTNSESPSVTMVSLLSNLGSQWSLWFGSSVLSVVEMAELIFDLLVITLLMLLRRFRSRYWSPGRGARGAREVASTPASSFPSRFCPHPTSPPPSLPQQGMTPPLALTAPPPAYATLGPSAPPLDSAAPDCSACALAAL
T1 sequence (P37090 1-638): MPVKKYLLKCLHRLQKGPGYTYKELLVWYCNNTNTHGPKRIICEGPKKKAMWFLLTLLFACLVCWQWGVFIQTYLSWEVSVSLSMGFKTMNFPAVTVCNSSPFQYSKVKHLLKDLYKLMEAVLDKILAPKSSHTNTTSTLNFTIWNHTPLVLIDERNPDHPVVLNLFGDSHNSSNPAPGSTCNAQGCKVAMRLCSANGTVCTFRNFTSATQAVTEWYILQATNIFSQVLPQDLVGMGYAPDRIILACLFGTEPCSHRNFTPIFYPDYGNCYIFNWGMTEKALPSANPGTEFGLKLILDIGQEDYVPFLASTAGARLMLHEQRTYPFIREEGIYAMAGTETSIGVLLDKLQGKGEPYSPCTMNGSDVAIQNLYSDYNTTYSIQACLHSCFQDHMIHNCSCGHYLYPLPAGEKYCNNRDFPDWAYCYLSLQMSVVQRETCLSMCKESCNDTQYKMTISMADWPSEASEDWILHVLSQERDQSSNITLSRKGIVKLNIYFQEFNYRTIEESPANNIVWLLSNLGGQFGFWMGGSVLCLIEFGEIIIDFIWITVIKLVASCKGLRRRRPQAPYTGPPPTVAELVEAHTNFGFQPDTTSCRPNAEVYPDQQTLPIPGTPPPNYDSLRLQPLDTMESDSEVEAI
T1 sequence (P37091 1-650): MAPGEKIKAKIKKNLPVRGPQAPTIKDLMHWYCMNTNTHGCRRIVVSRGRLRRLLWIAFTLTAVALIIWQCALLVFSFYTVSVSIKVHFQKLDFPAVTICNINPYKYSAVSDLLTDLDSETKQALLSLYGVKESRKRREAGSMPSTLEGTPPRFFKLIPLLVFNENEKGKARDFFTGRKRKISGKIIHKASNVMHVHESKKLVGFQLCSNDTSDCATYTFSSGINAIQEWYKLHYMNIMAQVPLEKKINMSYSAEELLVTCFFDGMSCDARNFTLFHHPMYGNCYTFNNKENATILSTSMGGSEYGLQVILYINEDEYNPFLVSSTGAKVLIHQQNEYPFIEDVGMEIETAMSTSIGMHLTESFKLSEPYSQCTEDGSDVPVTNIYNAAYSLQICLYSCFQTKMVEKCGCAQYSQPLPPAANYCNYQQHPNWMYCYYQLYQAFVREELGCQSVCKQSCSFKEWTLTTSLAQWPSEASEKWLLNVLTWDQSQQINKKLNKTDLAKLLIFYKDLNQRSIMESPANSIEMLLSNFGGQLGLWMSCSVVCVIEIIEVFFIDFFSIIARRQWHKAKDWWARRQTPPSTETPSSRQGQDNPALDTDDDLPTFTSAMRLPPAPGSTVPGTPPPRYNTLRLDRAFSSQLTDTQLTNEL


How the values were obtained:
CF HBECs = settings: Ringer with 50 mM NaCl exchanged for 100 mM POPSO; 3 h
NL HBECs = assay: ASL height by confocal microscopy in normal lung (NL) HBECs; type: cell-based, human; settings: Ringer with 50 mM NaCl exchanged for 100 mM POPSO; 3 h
Method: To label airway surface liquid, Ringer containing Texas Red-dextran (2 mg/ml; Invitrogen) was added to human bronchial epithelial culture mucosal surfaces. Perfluorocarbon was added mucosally to prevent evaporation of the airway surface liquid and the culture placed in a chamber containing 100 μl Ringer on the stage of a Leica SP5 confocal microscope with a 63× glycerol immersion objective. 5 points per culture were scanned and an average airway surface liquid height determined. For confocal microscopy human bronchial epithelial cultures were bathed serosally in a modified Ringer solution containing (mM): 116 NaCl, 10 NaHCO3, 5.1 KCl, 1.2 CaCl2, 1.2 MgCl2, 20 TES, 10 glucose, pH 7.4). At all other times, human bronchial epithelial cultures were maintained in a modified BEGM growth medium which contained 24 mM NaHCO3 gassed with 5% CO2.
To label the ASL, PBS containing 10 kDa Rhodamine dextran (0.2-2 mg/mL; Invitrogen, Carlsbad, Calif., USA) was added to HBEC mucosal surfaces as previously described (Tarran et al., Mol. Cell 8:149 (2001)). When added, peptides with or without 100 nM neutrophil elastase, 1 U/mL aprotinin, activated neutrophil supernatant (ANS) (Haynes et al., Am. J. Physiol. Heart Circ. Physiol. 294:H379 (2008)) or 10 μM sivelestat (Sigma-Aldrich, St Louis, Mo., USA) were added to the mucosal surface along with the Rhodamine dextran. Bumetanide (100 μM) was added to the serosal solution.

αβγENaC = target: T1, αβγENaC; assay: Amiloride-sensitive whole cell current, two electrode voltage clamp, Xenopus laevis oocytes expressing αβγENaC; type: cell-based; settings: PLUNC family member co-expressed with α,β,γ ENaC
Method: Xenopus laevis oocytes were harvested and injected as described (Donaldson, et al., J. Biol. Chem. 277:8338 (2002)). Defolliculated healthy stage V-VI oocytes were injected with 0.3 ng of CRNA of each ENaC subunit. Injected oocytes were kept in modified Barth's saline (in mM: 88 NaCl, 1 KCl, 2.4 NaHCO3, 0.3 Ca(NO3)2, 0.41 CaCl2, 0.82 MgSO4, and 15 HEPES, adjusted to pH 7.35 with Tris). Oocytes were studied 24 hr after injection using the two electrode voltage clamp technique as previously described (Donaldson, et al., J. Biol. Chem. 277:8338 (2002)). Oocytes were clamped at a holding potential of −60 mV. The change in amiloride-sensitive whole cell current as an indicator of ENaC activity was determined by subtracting the corresponding current value measured in the presence of 10 μM amiloride from that measured before the application of amiloride. Where appropriate, oocytes were incubated with G22-A39 or ABC for 1 h prior to recording. In some experiments β-ENaC^S518C was used which forms ENaCs that are locked into an open probability near 1.0 by exposure to the sulthydral reactive reagent [2-(Trimethyl-ammonium)ethyl]methanethiosulphonate bromide (MTSET). MTSET was added at a concentration of 1 mM to the oocyte bath as previously described (Snyder, J. Clin. Invest. 105: 45 (2000)).

| Molecule | CF ASL height (CF HBECs) | NL ASL height (NL HBECs) | amiloride-sensitive ENaC current relative to control, co-expression (αβγENaC) |
| --- | --- | --- | --- |
| O=S(=O)(O)CC(O)CN1CCN(CC(O)CS(=O)(=O)O)CC1 (stereo not drawn) [POPSO, reference compound] | significantly elevated | no effect |  |
| LPLUNC1: long PLUNC family member co-expressed in Xenopus oocytes (protein) TLSPTAVLILGPKVIKEKLTQELKDHNATSILQQLPLLSAMREKPAGGIPVLGSLVNTVLKHIIWLKVITANILQLQVKPSANDQELLVKIPLDMVAGFNTPLVKTIVEFHMTTEAQATIRMDTSASGPTRLVLSDCATSHGSLRIQLLHKLSFLVNALAKQVMNLLVPSLPNLVKNQLCPVIEASFNGMYADLLQLVKVPISLSIDRLEFDLLYPAIKGDTIQLYLGAKLLDSQGKVTKWFNNSAASLTMPTLDNIPFSLIVSQDVVKAAVAAVLSPEEFMVLLDSVLPESAHRLKSSIGLINEKAADKLGSTQIVKILTQDTPEFFIDQGHAKVAQLIVLEVFPSSEALRPLFTLGIEASSEAQFYTKGDQLILNLNNISSDRIQLMNSGIGWFQPDVLKNIITEIIHSILLPNQNGKLRSGVPVSLVKALGFEAAESSLTKDALVLTPASLWKPSSPVSQ |  |  | no significant ENaC current reduction |
